From ChEMBL document CHEMBL1201862, “PubChem BioAssay data set” (2004)
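Following 48 hours of exposure in 96-well plates, responses at five concentrations were used to interpolate endpoints linearly. Abbreviation: GI50, concentration required for 50% inhibition of growth.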 Calls of active or inactive are those of the source. No stated cut-off is given here; in the data, active = GI50 up to about 1.1 µM and inactive = higher.

Experiments:
Test in all cases: NCI anticancer screen, dose series, 48 h
MCF7 = system: MCF7
SN12C = system: SN12C
HCT-15 = system: HCT-15
PC-3 = system: PC-3
SF-295 = system: SF-295
SF-539 = system: SF-539
UACC-257 = system: UACC-257
ACHN = system: ACHN
A549 = system: A549
U-251 = system: U-251
HL-60 = system: HL-60
DU-145 = system: DU-145
SNB-19 = system: SNB-19
Malme-3M = system: Malme-3M
MDA-N = system: MDA-N
COLO 205 = system: COLO 205
KM12 = system: KM12
NCI-H460 = system: NCI-H460
MDA-MB-231 = system: MDA-MB-231
SW-620 = system: SW-620
M14 = system: M14
SF-268 = system: SF-268
SK-MEL-5 = system: SK-MEL-5
HCC 2998 = system: HCC 2998
SK-OV-3 = system: SK-OV-3
NCI/ADR-RES = system: NCI/ADR-RES
HT-29 = system: HT-29
UACC-62 = system: UACC-62
CCRF-CEM = system: CCRF-CEM
SR = system: SR
HOP-62 = system: HOP-62
MDA-MB-435 = system: MDA-MB-435
HCT-116 = system: HCT-116
TK-10 = system: TK-10
NCI-H522 = system: NCI-H522
NCI-H23 = system: NCI-H23
SK-MEL-2 = system: SK-MEL-2
SNB-75 = system: SNB-75
OVCAR-5 = system: OVCAR-5
T47D = system: T47D
MOLT-4 = system: MOLT-4
CAKI-1 = system: CAKI-1
786-0 = system: 786-0
K562 = system: K562
OVCAR-8 = system: OVCAR-8
UO-31 = system: UO-31
OVCAR-3 = system: OVCAR-3
Hs-578T = system: Hs-578T
SK-MEL-28 = system: SK-MEL-28
NCI-H226 = system: NCI-H226
A498 = system: A498
IGROV-1 = system: IGROV-1
BT-549 = system: BT-549
OVCAR-4 = system: OVCAR-4
RPMI-8226 = system: RPMI-8226
RXF 393 = system: RXF 393
LOX IMVI = system: LOX IMVI
EKVX = system: EKVX

Cc1ncc([N+](=O)[O-])n1CCNC(=O)Cn1c([N+](=O)[O-])cnc1C was tested, and the GI50 (MCF7) was > 100 µM (inactive), the GI50 (SN12C) was > 100 µM (inactive) and the GI50 (HCT-15) was > 100 µM. For the same molecule, the GI50 (PC-3) was > 100 µM (inactive), the GI50 (SF-295) was > 100 µM (inactive) and the GI50 (SF-539) was > 100 µM (inactive). The GI50 (UACC-257) was > 100 µM (inactive), the GI50 (ACHN) was > 100 µM (inactive) and the GI50 (A549) was > 100 µM (inactive). For the same molecule, the GI50 (U-251) was > 100 µM (inactive), the GI50 (HL-60) was > 100 µM (inactive) and the GI50 (DU-145) was 92.5 µM (inactive). The GI50 (SNB-19) was > 100 µM (inactive), the GI50 (Malme-3M) was > 100 µM (inactive) and the GI50 (MDA-N) was > 100 µM (inactive). For the same molecule, the GI50 (COLO 205) was > 100 µM (inactive), the GI50 (KM12) was > 100 µM (inactive) and the GI50 (NCI-H460) was > 100 µM (inactive). The GI50 (MDA-MB-231) was > 100 µM (inactive), the GI50 (SW-620) was > 100 µM (inactive) and the GI50 (M14) was > 100 µM (inactive). The GI50 (SF-268) was > 100 µM (inactive), the GI50 (SK-MEL-5) was > 100 µM (inactive) and the GI50 (HCC 2998) was > 100 µM (inactive). For the same molecule, the GI50 (SK-OV-3) was > 100 µM (inactive), the GI50 (NCI/ADR-RES) was > 100 µM (inactive) and the GI50 (HT-29) was > 100 µM (inactive). The GI50 (UACC-62) was > 100 µM (inactive), the GI50 (CCRF-CEM) was > 100 µM (inactive) and the GI50 (SR) was > 100 µM (inactive). The GI50 (HOP-62) was > 100 µM (inactive), the GI50 (MDA-MB-435) was > 100 µM (inactive) and the GI50 (HCT-116) was > 100 µM (inactive). The GI50 (TK-10) was > 100 µM (inactive), the GI50 (NCI-H522) was > 100 µM (inactive) and the GI50 (NCI-H23) was > 100 µM (inactive). The GI50 (SK-MEL-2) was > 100 µM (inactive), the GI50 (SNB-75) was 76.2 µM (inactive) and the GI50 (OVCAR-5) was > 100 µM (inactive). The GI50 (T47D) was > 100 µM (inactive), the GI50 (MOLT-4) was > 100 µM (inactive) and the GI50 (CAKI-1) was > 100 µM (inactive). The GI50 (786-0) was > 100 µM (inactive), the GI50 (K562) was > 100 µM (inactive) and the GI50 (OVCAR-8) was > 100 µM (inactive). The GI50 (UO-31) was > 100 µM (inactive), the GI50 (OVCAR-3) was > 100 µM (inactive) and the GI50 (Hs-578T) was > 100 µM (inactive). For the same molecule, the GI50 (SK-MEL-28) was > 100 µM (inactive), the GI50 (NCI-H226) was > 100 µM (inactive) and the GI50 (A498) was > 100 µM (inactive). The GI50 (IGROV-1) was > 100 µM (inactive) and the GI50 (BT-549) was > 100 µM (inactive).
With S=C1Nc2ccccc2SC1c1ccccc1 (stereo unspecified) the GI50 (MCF7) was > 100 µM (inactive), the GI50 (SN12C) was > 100 µM (inactive) and the GI50 (HCT-15) was > 100 µM. For the same molecule, the GI50 (PC-3) was 57.9 µM (inactive), the GI50 (SF-295) was 16.4 µM (inactive) and the GI50 (UACC-257) was > 100 µM (inactive). The GI50 (ACHN) was 69.3 µM (inactive), the GI50 (A549) was > 100 µM (inactive) and the GI50 (U-251) was 47.1 µM (inactive). For the same molecule, the GI50 (HL-60) was 5.22 µM (inactive), the GI50 (OVCAR-4) was 46 µM (inactive) and the GI50 (RPMI-8226) was > 100 µM (inactive). For the same molecule, the GI50 (DU-145) was > 100 µM (inactive), the GI50 (SNB-19) was 39 µM (inactive) and the GI50 (Malme-3M) was 92.3 µM (inactive). The GI50 (MDA-N) was > 100 µM (inactive), the GI50 (RXF 393) was 16.6 µM (inactive) and the GI50 (COLO 205) was > 100 µM (inactive). For the same molecule, the GI50 (KM12) was > 100 µM (inactive), the GI50 (NCI-H460) was > 100 µM (inactive) and the GI50 (MDA-MB-231) was 66.1 µM (inactive). The GI50 (M14) was > 100 µM (inactive), the GI50 (SF-268) was 30.3 µM (inactive) and the GI50 (SK-MEL-5) was > 100 µM (inactive). The GI50 (SK-OV-3) was 35.8 µM (inactive), the GI50 (NCI/ADR-RES) was 56.1 µM (inactive) and the GI50 (HT-29) was > 100 µM (inactive). For the same molecule, the GI50 (LOX IMVI) was 49.7 µM (inactive), the GI50 (EKVX) was > 100 µM (inactive) and the GI50 (UACC-62) was > 100 µM (inactive). For the same molecule, the GI50 (CCRF-CEM) was 2.96 µM (inactive), the GI50 (SR) was 30.2 µM (inactive) and the GI50 (HOP-62) was 24.8 µM (inactive). For the same molecule, the GI50 (MDA-MB-435) was > 100 µM (inactive), the GI50 (HCT-116) was > 100 µM (inactive) and the GI50 (TK-10) was 56.6 µM (inactive). For the same molecule, the GI50 (NCI-H522) was > 100 µM (inactive), the GI50 (NCI-H23) was 74.6 µM (inactive) and the GI50 (SNB-75) was 23.6 µM (inactive). For the same molecule, the GI50 (OVCAR-5) was > 100 µM (inactive), the GI50 (T47D) was 72.6 µM (inactive) and the GI50 (MOLT-4) was > 100 µM (inactive). The GI50 (CAKI-1) was > 100 µM (inactive), the GI50 (786-0) was 34.9 µM (inactive) and the GI50 (K562) was 94.8 µM (inactive). The GI50 (OVCAR-8) was > 100 µM (inactive), the GI50 (UO-31) was > 100 µM (inactive) and the GI50 (OVCAR-3) was 30.5 µM (inactive). The GI50 (Hs-578T) was 19.9 µM (inactive), the GI50 (SK-MEL-28) was > 100 µM (inactive) and the GI50 (NCI-H226) was 28.6 µM (inactive). For the same molecule, the GI50 (IGROV-1) was > 100 µM (inactive) and the GI50 (BT-549) was > 100 µM (inactive).
